In ChEMBL document CHEMBL2311357, “Aminoalkyl derivatives of guanidine diaromatic minor groove binders with antiprotozoal activity” (J Med Chem, 2013):

Experiments:
[1] = test system: Trypanosoma brucei rhodesiense; assay: Antitrypanosomal activity against Trypanosoma brucei rhodesiense STIB900 after 70 hrs by resazurin reduction assay; assay type: functional, organism-based; conditions: STIB900, 70 h
[2] = Selectivity index, ratio of IC50 for rat L6 cells to IC50 for Plasmodium falciparum NF54; assay type: toxicity, cell-based; conditions: L6 cells versus Plasmodium falciparum NF54, read-out: Ratio IC50
[3] = test system: Salmonidae; assay: Binding affinity to salmon sperm DNA in 10 mM phosphate buffer assessed as change in melting temperature at 15 uM by thermal denaturation assay
[4] = test system: L6; assay: Cytotoxicity against rat L6 cells after 70 hrs by resazurin reduction assay; assay type: cell-based; conditions: L6, 70 h
[5] = Selectivity index, ratio of IC50 for rat L6 cells to IC50 for Trypanosoma brucei rhodesiense STIB900; assay type: toxicity, cell-based; conditions: L6 cells versus Trypanosoma brucei rhodesiense STIB900, read-out: Ratio IC50
[6] = test system: Plasmodium falciparum; assay: Antimalarial activity against erythrocytic stage of Plasmodium falciparum NF54 assessed as incorporation of [3H]hypoxanthine after 48 hrs by scintillation counting analysis; assay type: functional, organism-based
[7] = Binding affinity to poly(dA-dT) DNA (unknown origin) in Tris-Hcl buffer assessed as change in melting temperature
[8] = test system: DNA; assay: Binding affinity to calf thymus DNA in Tris-Hcl buffer assessed as change in melting temperature; assay type: nucleic-acid assay; conditions: Bos taurus
[9] = test system: unidentified; assay: Binding affinity to poly(dA-dT) DNA (unknown origin) in PIPES buffer assessed as change in melting temperature
[10] = test system: DNA; assay: Binding affinity to calf thymus DNA in MES buffer assessed as change in melting temperature; assay type: nucleic-acid assay; conditions: Bos taurus

SMILES	selectivity ratio [2]	ΔTm [3] [°C]	IC50 [4] [µM]	IC50 [6] [µM]	also measured
N=C(N)Nc1ccc(C(=O)c2ccc(NC(=O)CCCCN)cc2)cc1	55	5.2	140	2.55	IC50 [1]: 121 µM; selectivity ratio [5]: 1
Nc1nc(N)nc(Nc2ccc([As]3SCC(CO)S3)cc2)n1 (configuration not stated) [MELARSOPROL]					IC50 [1]: 0.0055 µM
N=C(N)Nc1ccc(CCc2ccc(NC(=O)CCCCCCCCCCN)cc2)cc1	12	1.1	70.6	5.79	
N=C(N)Nc1ccc(CCc2ccc(NC(=O)CCCCCCCN)cc2)cc1		2			
N=C(N)Nc1ccc(C(=O)c2ccc(NC(=N)N)cc2)cc1		4.2			
N=C(N)Nc1ccc(Oc2ccc(NC(=O)CCCN)cc2)cc1	197	1.2	173	0.88	
N=C(N)Nc1ccc(Nc2ccc(NC(=N)N)cc2)cc1		8			
N=C(N)Nc1ccc(Oc2ccc(N)cc2)cc1		2			
N=C(N)Nc1ccc(Oc2ccc(NC(=O)CCCCCCCCCCN)cc2)cc1	44	2	62.3	1.41	
N=C(N)Nc1ccc(Cc2ccc(NC(=O)CCCCCCCN)cc2)cc1		0.1			
N=C(N)Nc1ccc(Nc2ccc(NC(=O)CCCCCCCCCCN)cc2)cc1	41	3.1	157	3.79	IC50 [1]: 85.4 µM; selectivity ratio [5]: 2
N=C(N)Nc1ccc(CCc2ccc(NC(=O)CCCCCCCCCCCN)cc2)cc1		1.1			
N=C(N)Nc1ccc(Cc2ccc(NC(=O)CCCCCCCCCCN)cc2)cc1	15	0	30.3	2.02	
N=C(N)Nc1ccc(CCc2ccc(NC(=O)CCCCN)cc2)cc1	103	5.1	109	1.06	IC50 [1]: 20.2 µM; selectivity ratio [5]: 5
N=C(N)Nc1ccc(Oc2ccc(NC(=O)CCCCN)cc2)cc1	316	6	33.5	0.106	IC50 [1]: 13.1 µM; selectivity ratio [5]: 3
N=C(N)Nc1ccc(Oc2ccc(NC(=O)CCCCCCCN)cc2)cc1	913	2.1	136	0.149	IC50 [1]: 31.9 µM; selectivity ratio [5]: 4
N=C(N)Nc1ccc(CCc2ccc(N)cc2)cc1		0.1			

SMILES	selectivity ratio [2]	ΔTm [3] [°C]	IC50 [4] [µM]	IC50 [6] [µM]	also measured
N=C(N)Nc1ccc(Cc2ccc(NC(=O)CCCCCCCCCCCN)cc2)cc1	10	0.1	23.8	2.32	
N=C(N)Nc1ccc(C(=O)c2ccc(NC(=O)CCCCCCCCCCN)cc2)cc1		2			
N=C(N)Nc1ccc(C(=O)c2ccc(NC(=O)CCCN)cc2)cc1		5.1			
N=C(N)Nc1ccc(Nc2ccc(NC(=O)CCCCN)cc2)cc1	153	6.1	223	1.46	IC50 [1]: 57.7 µM; selectivity ratio [5]: 4
N=C(N)Nc1ccc(Nc2ccc(NC(=O)CCCCCCCN)cc2)cc1		2			
N=C(N)Nc1ccc(C(=O)c2ccc(N)cc2)cc1		0			
N=C(N)Nc1ccc(Cc2ccc(NC(=O)CCCCN)cc2)cc1	179	4	105	0.589	
N=C(N)Nc1ccc(CCc2ccc(NC(=O)CCCN)cc2)cc1	116	5	133	1.14	IC50 [1]: 13.3 µM; selectivity ratio [5]: 10
N=C(N)Nc1ccc(Cc2ccc(NC(=O)CCCN)cc2)cc1	79	1	207	2.62	
N=C(N)Nc1ccc(C(=O)c2ccc(NC(=O)CCCCCCCCCCCN)cc2)cc1	5	2.1	10.6	1.98	
N=C(N)Nc1ccc(Nc2ccc(N)cc2)cc1		2.1			
N=C(N)Nc1ccc(Cc2ccc(N)cc2)cc1		3			
N=C(N)Nc1ccc(Oc2ccc(NC(=O)CCCCCCCCCCCN)cc2)cc1	13	2	22.4	1.71	
N=C(N)Nc1ccc(Cc2ccc(NC(=N)N)cc2)cc1		8.1			
N=C(N)Nc1ccc(Nc2ccc(NC(=O)CCCCCCCCCCCN)cc2)cc1	4	5	11.9	2.71	IC50 [1]: 4.06 µM; selectivity ratio [5]: 3
N=C(N)c1ccc(OCCCCCOc2ccc(C(=N)N)cc2)cc1 [PENTAMIDINE]	56		1.51	0.027	ΔTm [7]: 11.1 °C; ΔTm [8]: 20.6 °C; ΔTm [9]: 12.8 °C; IC50 [1]: 0.002 µM; ΔTm [10]: 10.6 °C; selectivity ratio [5]: 755
N=C(N)Nc1ccc(Nc2ccc(NC(=O)CCCN)cc2)cc1	106	1	127	1.2	
